What was measured:
[1] = viable cells (Annexin V-PI double negative) with CH004 and ferroptosis inhibitors, flow cytometry; settings: human
hCSE = hCSE (Homo sapiens, UniProt P32929); test: purified hCSE enzyme assay; type: biochemical; parameters: human CBS or hCSE full-length (CBS-FL or CSE) was subcloned into pGEX-KG, pcDNA3 or pCDH vector; GST (N); made in house; host or cells: E. coli BL21
Description: Fig. 1 CH004 inhibits the activity of hCBS in the in vitro purified enzyme assays under different assay conditions. a A scheme for the cascade enzymatic reactions catalyzed by CBS or CSE. Cth, cystathionine. b, c Inhibitory effects of CH004 on the activity of hCBS-413 (b) or hCSE (c). The enzyme activities were monitored for various concentrations of CH004 under the standard conditions (50 mM Tris-HCl, pH 8.6; “Materials and Methods” section). The result is shown as percentages of the control (DMSO, 100%). The data are shown as means ± SDS (n = 3). d The dose-dependent inhibition of CH004 on the hCBS-413 activity was measured by the tandem-well-based assay under the standard conditions except using 50 mM Hepes buffer (pH 7.4) instead of 50 mM Tris-HCl (pH 8.6). Means ± SDs (n = 3). e The dose-dependent inhibition of CH004 on the CBS activity measured by methylene blue method. […] After 80 min, the assay was stopped by added 10 μL 10% ZnAC and the generated H2S was quantified by N,N-dimethyl-p-phenylenediamine to give an absorbance at 670 nm (for details, see Materials and Methods section; ref. [53]).
The IC50 values of CH004 for hCBS-413, hCBS-413 mutants, hCBS-FL, hCSE or hDDC were determined according to the standard assay conditions otherwise indicated.

[2] = tested on: mouse embryonic fibroblasts (MEF); test: lipid ROS (BODIPY 581/591 C11, flow cytometry); type: cell-based; settings: low micromolar concentrations, 24 h
Description: To detect lipid peroxidation upon treatment with CH004, HepG2 cells or mouse embryonic fibroblasts (MEF) were seeded in 12-well plates with ~ 1.8 × 10^5 cells per well for 24 h. After treatment with the inhibitor for another 24 h, cells were stained with BODIPY® 581/591 C11 (Invitrogen) for 1 h at a final concentration of 2 μM at 37 °C[57]. The cells were then resuspended in an appropriate amount of PBS after being washed once with PBS. Lipid peroxidation, i.e., lipid ROS, was analyzed by detection of the fluorescence using an LSR Fortessa flow cytometer. The data were recorded at 530/30 nm (green fluorescent) and 670/30 nm (red fluorescent) wavelengths after excitation at 488 nm. A minimum of 20000 events was used for the analysis. All the experiments were independently repeated twice in triplicate.
Figure S15. The mode of actions for CH004 in cells. […] Indicated HEK293T stable cell lines were treated with CH004 at a concentration of 10 µM for 24 h, and the cell viability was then measured using the CellTiter96® Aqueous One Solution Cell Proliferation Assay (Promega). Means ± SDs (n=3). (B-C) CH004 or erastin triggers ferroptosis in mouse embryonic fibroblasts (MEF). […] The cell viability was accordingly quantified using the CellTiter96® Aqueous One Solution Cell Proliferation Assay (Promega) and the results were shown as percentages of DMSO (control, 100%). […]

Sequence of hCSE (P32929 whole entry): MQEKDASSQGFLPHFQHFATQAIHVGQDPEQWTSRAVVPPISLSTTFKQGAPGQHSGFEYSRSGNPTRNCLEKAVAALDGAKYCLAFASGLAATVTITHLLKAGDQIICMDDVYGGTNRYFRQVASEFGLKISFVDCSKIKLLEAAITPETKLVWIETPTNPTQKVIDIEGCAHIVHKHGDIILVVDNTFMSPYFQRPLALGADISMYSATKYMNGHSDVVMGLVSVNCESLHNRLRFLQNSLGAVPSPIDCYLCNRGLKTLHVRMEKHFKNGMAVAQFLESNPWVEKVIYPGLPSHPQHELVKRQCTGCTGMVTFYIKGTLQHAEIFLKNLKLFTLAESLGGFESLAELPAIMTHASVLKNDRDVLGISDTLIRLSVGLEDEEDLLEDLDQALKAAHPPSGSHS

For Cn1nc(Cc2ccccc2)nc2c(=O)n(C)c(=O)nc1-2 [CH004, 3-benzyl-1,6-dimethylpyrimido[5,4-e][1,2,4]triazine-5,7(1H,6H)-dione], the viability at 24 h, 15 μM [1] was 30.8%, the “Fold selectivity hCSE vs hCBS-413” value (hCSE; IC50 of hCSE / IC50 of hCBS-413) was 29.9 fold and the IC50 (hCSE; standard conditions, 50 mM Tris-HCl pH 8.6) was 29.9 ± 5.6 µM. The “induction of ferroptosis (lipid ROS) in MEF” value [2] was about 2 fold.

Reference: article PMC6158189, “A pharmacological probe identifies cystathionine β-synthase as a new negative regulator for ferroptosis” (Cell Death & Disease, 2018)
